This assay concerns the target T1, TLR7 extracellular domain (Macaca mulatta, UniProt B3Y653, N167Q/N389Q/N488Q/N799Q).
T1 construct: Monkey (Macaca mulatta) TLR7 extracellular domain expression construct; protein A tag (C, cleaved yes); made in house; host or cells: Drosophila S2 cells
T1 sequence (B3Y653 with tags, fused parts or gaps N167Q/N389Q): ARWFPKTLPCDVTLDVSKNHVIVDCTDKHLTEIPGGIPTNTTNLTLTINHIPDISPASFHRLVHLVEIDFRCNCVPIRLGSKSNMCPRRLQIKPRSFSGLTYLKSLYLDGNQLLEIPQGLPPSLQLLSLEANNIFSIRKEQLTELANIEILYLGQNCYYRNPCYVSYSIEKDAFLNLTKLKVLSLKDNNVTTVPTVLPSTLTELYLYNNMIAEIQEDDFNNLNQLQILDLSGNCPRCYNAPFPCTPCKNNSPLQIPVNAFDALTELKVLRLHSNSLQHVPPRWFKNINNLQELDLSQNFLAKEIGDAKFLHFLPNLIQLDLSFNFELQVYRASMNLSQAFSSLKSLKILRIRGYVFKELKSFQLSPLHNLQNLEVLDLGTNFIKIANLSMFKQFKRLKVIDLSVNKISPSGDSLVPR
T1 sequence (B3Y653 with tags, fused parts or gaps N488Q/N799Q): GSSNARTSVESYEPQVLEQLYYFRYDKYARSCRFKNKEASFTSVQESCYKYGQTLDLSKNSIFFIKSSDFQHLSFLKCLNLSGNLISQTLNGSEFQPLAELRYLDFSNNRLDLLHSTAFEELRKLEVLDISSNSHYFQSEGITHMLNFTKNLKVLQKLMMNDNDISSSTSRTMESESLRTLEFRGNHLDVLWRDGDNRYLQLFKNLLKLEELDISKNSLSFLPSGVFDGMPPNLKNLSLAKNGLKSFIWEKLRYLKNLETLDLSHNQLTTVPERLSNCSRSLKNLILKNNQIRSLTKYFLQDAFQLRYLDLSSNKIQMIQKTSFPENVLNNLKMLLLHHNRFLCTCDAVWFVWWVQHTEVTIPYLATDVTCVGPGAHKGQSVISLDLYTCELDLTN
Put plainly: ITC titration to TLR7 recombinant protein. It counts as binding, Monkey (Macaca mulatta). The settings on record: pH 4.7; read-out: Dissociation constant KD. Here is the method: The recombinant TLR7 proteins expressed in Drosophila S2 cells (Thermo Fisher Scientific) using Monkey (Macaca mulatta) TLR7 extracellular domain expression construct with N167Q, N399Q, N488Q and N799Q mutations and cleavable Z-loop and C-terminal protein A tag were prepared and were stored in a buffer containing 10 mM Tris-HCl pH 7.5 and 150 mM NaCl at concentrations of 10–15 mg ml^−1. Briefly, the purification steps included IgG affinity purification, the Z-loop and the protein A tag cleavage, and gel-filtration chromatography. Glycan-trimmed TLR7 proteins, expressed in the presence of 1.5 mg l^−1 kifunensine (Glycosyn) and treated by Endo Hf (New England Biolabs) were used for crystallization. Glycan-untrimmed proteins were used in ITC analysis, crosslinking assay, negative-staining EM and cryo-EM (200 kV microscopes) analyses. Glycan-trimmed TLR7 proteins with partially-uncleaved protein A tag were used for cryo-EM analysis using Tatan Krios (Supplementary Fig. 11).
ITC experiments (Fig. 2a) were conducted at 298 K in a final buffer condition of ~30 mM citrate-NaOH pH 4.7 or pH 5.7 (Hampton Research), 150 mM NaCl by using a MicroCal iTC200 (Malvern Panalytical). […]
(In ITC the heat of successive injections is recorded.)

Regarding `CCOc1nc(N)c2nc(-c3cncc(F)c3)n(Cc3ccc(CN4C[C@@H]5C[C@H]4CN5C)cc3)c2n1` [Cpd-6], the equilibrium dissociation constant (Kd) (usually a measure of binding affinity in units of concentration) amounted to 10 µM.

`CCOc1nc(C)c2nc(-c3cncc(F)c3)n(Cc3ccc(CN4C[C@@H]5C[C@H]4CN5C)cc3)c2n1` [Cpd-7]: the dissociation constant Kd amounted to 7.4 µM.

(Values after publication PMC7562955 (Nature Communications, 2020).)
